Experimental data reported in patent US8785488B2 (Exelixis Patent Company LLC, priority 2009, dated 2014).

How the values were obtained:
human TGR5 (h-TGR5) = molecular target: T1, human TGR5 (h-TGR5) (Homo sapiens, UniProt Q8TDU6); assay: TGR5/CRE-Luciferiase Assay (HEK 293 hTGR5/CRE-Luc cells); format: cell-based; conditions: h-TGR5 CRE-Luc EC50, Table 1; read-out: CRE-Luc (EC50)
T1 construct: expressed in transfected cells
T1 sequence (Q8TDU6 1-330): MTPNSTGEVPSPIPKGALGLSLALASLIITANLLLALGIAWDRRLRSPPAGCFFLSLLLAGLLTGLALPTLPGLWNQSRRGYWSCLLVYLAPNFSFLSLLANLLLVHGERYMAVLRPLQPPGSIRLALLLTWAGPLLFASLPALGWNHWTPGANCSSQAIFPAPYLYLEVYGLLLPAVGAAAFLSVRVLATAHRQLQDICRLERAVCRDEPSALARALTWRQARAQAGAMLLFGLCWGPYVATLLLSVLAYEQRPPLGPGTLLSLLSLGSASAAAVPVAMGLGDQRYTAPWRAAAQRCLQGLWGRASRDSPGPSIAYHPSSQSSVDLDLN
Summary of the method: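 HEK293 cells stably carrying hTGR5 and a CRE-luciferase reporter were exposed to serially diluted compounds (diluted in DMEM with 5% DMSO) for 6 h. Cells were then lysed in luciferase buffer, luminescence was read, and EC50 values were derived from dose-response curves.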

h-TGR5 = molecular target: T2, h-TGR5 (Homo sapiens, UniProt Q8TDU6); assay: TGR5 cAMP Assay using Cisbio cAMP Dynamic2 htrf kit (hTGR5CRE-luc HEK 293 cells); format: cell-based; conditions: h-TGR5 cAMP EC50, Table 1; read-out: cAMP (EC50)
T2 construct: expressed in transfected cells
T2 sequence (Q8TDU6 1-330): T1 sequence (Q8TDU6 1-330)
Summary of the method: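 […], 4000 hTGR5CRE-luc HEK 293 cells per well, with 0.5 mM IBMX and d2-cAMP, were incubated 30 min at room temperature with compounds in 8-point half-log series, in quadruplicate.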

Structure (SMILES)	EC50 (human TGR5 (h-TGR5))	EC50 (h-TGR5)
COc1cc(-n2c(C(C)(C)c3ccc(S(N)(=O)=O)c(Cl)c3)cnc2SCc2c(F)cc(C(=O)O)cc2F)ccc1F [4-{[(5-{1-[4-(aminosulfonyl)-3-chlorophenyl]-1-methylethyl}-1-[4-fluoro-3-(methyloxy)phenyl]-1H-imidazol-2-yl)thio]methyl}-3,5-difluorobenzoic acid]	< 0.1 µM	< 0.1 µM
COc1cc(-n2c(C(C)(C)c3ccc(S(N)(=O)=O)c(Cl)c3)cnc2SCc2ccc(S(=O)(=O)NC(=O)NN3CCOCC3)cc2Cl)ccc1F [4-{[(5-{1-[4-(aminosulfonyl)-3-chlorophenyl]-1-methylethyl}-1-[4-fluoro-3-(methyloxy)phenyl]-1H-imidazol-2-yl)thio]methyl}-3-chloro-N-[(morpholin-4-ylamino)carbonyl]benzenesulfonamide]	0.1 to 1 µM	< 0.1 µM
COc1cc(-n2c(C(C)(C)c3ccc(S(N)(=O)=O)c(Cl)c3)cnc2SCc2ccc(S(=O)(=O)NC(=O)NN3CCCCC3)cc2Cl)ccc1F [4-{[(5-{1-[4-(aminosulfonyl)-3-chlorophenyl]-1-methylethyl}-1-[4-fluoro-3-(methyloxy)phenyl]-1H-imidazol-2-yl)thio]methyl}-3-chloro-N-[(piperidin-1-ylamino)carbonyl]benzenesulfonamide]	0.1 to 1 µM	0.1 to 1 µM
COc1cc(-n2c(C(C)(C)c3ccc(S(N)(=O)=O)cc3)cnc2SCc2c(F)cc(C(=O)O)cc2F)ccc1F [4-{[(5-{1-[4-(aminosulfonyl)phenyl]-1-methylethyl}-1-[4-fluoro-3-(methyloxy)phenyl]-1H-imidazol-2-yl)thio]methyl}-3,5-difluorobenzoic acid]	0.1 to 1 µM	0.1 to 1 µM
COc1cc(-n2c(C(C)(C)c3ccc(S(C)(=O)=O)cc3)cnc2SCc2ccc(Cl)c(-c3nnn[nH]3)c2)ccc1F [5-(2-chloro-5-{[(1-[4-fluoro-3-(methyloxy)phenyl]-5-{1-methyl-1-[4-(methylsulfonyl)phenyl]ethyl}-1H-imidazol-2-yl)thio]methyl}phenyl)-1H-tetrazole]	0.1 to 1 µM	0.1 to 1 µM
COc1cc(C(C)(C)c2cnc(SCc3c(F)cc(OCc4nnn[nH]4)cc3F)n2-c2ccc(F)cc2)ccc1Cl [5-({[4-({[5-{1-[4-chloro-3-(methyloxy)phenyl]-1-methylethyl}-1-(4-fluorophenyl)-1H-imidazol-2-yl]thio}methyl)-3,5-difluorophenyl]oxy}methyl)-1H-tetrazole]	< 0.1 µM	< 0.1 µM
COc1ccc(C(C)(C)c2cnc(SCc3ccc(F)c(C(N)=O)c3)n2-c2ccc(F)cc2)cc1OC [5-({[5-{1-[3,4-bis(methyloxy)phenyl]-1-methylethyl}-1-(4-fluorophenyl)-1H-imidazol-2-yl]thio}methyl)-2-fluorobenzamide]	< 0.1 µM	< 0.1 µM
COc1ccc(C(C)(C)c2cnc(SCc3ccc(F)c(S(N)(=O)=O)c3)n2-c2ccc(F)cc2)cc1OC [5-({[5-{1-[3,4-bis(methyloxy)phenyl]-1-methylethyl}-1-(4-fluorophenyl)-1H-imidazol-2-yl]thio}methyl)-2-fluorobenzenesulfonamide]	< 0.1 µM	< 0.1 µM
COc1ccc(C(C)(C)c2cnc(SCc3ccc(F)c(S(N)(=O)=O)c3)n2-c2ccc(F)cc2)cc1Cl [5-({[5-{1-[3-chloro-4-(methyloxy)phenyl]-1-methylethyl}-1-(4-fluorophenyl)-1H-imidazol-2-yl]thio}methyl)-2-fluorobenzenesulfonamide]	< 0.1 µM	< 0.1 µM
COc1cc(C(C)(C)c2cnc(SCc3ccc(F)c(S(N)(=O)=O)c3)n2-c2ccc(F)cc2)ccc1Cl [5-({[5-{1-[4-chloro-3-(methyloxy)phenyl]-1-methylethyl}-1-(4-fluorophenyl)-1H-imidazol-2-yl]thio}methyl)-2-fluorobenzenesulfonamide]	< 0.1 µM	< 0.1 µM
CC(C)(c1ccc(Cl)c(Cl)c1)c1cnc(SCC2CCN(S(C)(=O)=O)C2)n1-c1ccc(F)cc1 (centres unmarked) [5-[1-(3,4-dichlorophenyl)-1-methylethyl]-1-(4-fluorophenyl)-2-({[1-(methylsulfonyl)pyrrolidin-3-yl]methyl}thio)-1H-imidazole]	0.1 to 1 µM	0.1 to 1 µM
CC(C)(c1ccc(Cl)c(Cl)c1)c1cnc(SCc2ccc(F)c(S(C)(=O)=O)c2)n1-c1ccc(F)cc1 [5-[1-(3,4-dichlorophenyl)-1-methylethyl]-2-({[4-fluoro-3-(methylsulfonyl)phenyl]methyl}thio)-1-(4-fluorophenyl)-1H-imidazole]	< 0.1 µM	0.1 to 1 µM
CC(C)(c1ccc(Cl)c(Cl)c1)c1cnc(SCc2c(F)cccc2F)n1-c1ccc(F)cc1 [5-[1-(3,4-dichlorophenyl)-1-methylethyl]-2-{[(2,6-difluorophenyl)methyl]thio}-1-(4-fluorophenyl)-1H-imidazole]	< 0.1 µM	0.1 to 1 µM
CC(C)(c1ccc(F)c(Cl)c1)c1cnc(SCc2c(F)cccc2Cl)n1-c1ccc(F)cc1 [5-[1-(3-chloro-4-fluorophenyl)-1-methylethyl]-2-{[(2-chloro-6-fluorophenyl)methyl]thio}-1-(4-fluorophenyl)-1H-imidazole]	< 0.1 µM	0.1 to 1 µM
CC(C)(c1ccc(Cl)cc1F)c1cnc(SCc2c(F)cccc2Cl)n1-c1ccc(F)cc1 [5-[1-(4-chloro-2-fluorophenyl)-1-methylethyl]-2-{[(2-chloro-6-fluorophenyl)methyl]thio}-1-(4-fluorophenyl)-1H-imidazole]	0.1 to 1 µM	0.1 to 1 µM
COc1ccc(C2CCCCN2S(=O)(=O)c2ncc(C(C)(C)c3ccc(Cl)c(Cl)c3)n2-c2ccc(F)cc2)cn1 (centres unmarked) [5-[1-({5-[1-(3,4-dichlorophenyl)-1-methylethyl]-1-(4-fluorophenyl)-1H-imidazol-2-yl}sulfonyl)piperidin-2-yl]-2-(methyloxy)pyridine]	0.1 to 1 µM	0.1 to 1 µM
COc1ccc(C(C)(C)c2cnc(SCc3cc(-c4nnn[nH]4)c(Cl)cc3Cl)n2-c2ccc(F)cc2)cc1Cl [5-[2,4-dichloro-5-({[5-{1-[3-chloro-4-(methyloxy)phenyl]-1-methylethyl}-1-(4-fluorophenyl)-1H-imidazol-2-yl]thio}methyl)phenyl]-1H-tetrazole]	< 0.1 µM	0.1 to 1 µM
COc1ccc(C(C)(C)c2cnc(SCc3ccc(Cl)c(-c4nnn[nH]4)c3)n2-c2ccc(F)cc2)cc1Cl [5-[2-chloro-5-({[5-{1-[3-chloro-4-(methyloxy)phenyl]-1-methylethyl}-1-(4-fluorophenyl)-1H-imidazol-2-yl]thio}methyl)phenyl]-1H-tetrazole]	< 0.1 µM	0.1 to 1 µM
COc1cc(C(C)(C)c2cnc(COc3ccc(Cl)c(-c4nnn[nH]4)c3)n2-c2ccc(F)cc2)ccc1Cl [5-[2-chloro-5-({[5-{1-[4-chloro-3-(methyloxy)phenyl]-1-methylethyl}-1-(4-fluorophenyl)-1H-imidazol-2-yl]methyl}oxy)phenyl]-1H-tetrazole]	< 0.1 µM	0.1 to 1 µM
COc1cc(C(C)(C)c2cnc(SCc3ccc(Cl)c(-c4nnn[nH]4)c3)n2-c2ccc(F)cc2)ccc1Cl [5-[2-chloro-5-({[5-{l-[4-chloro-3-(methyloxy)phenyl]-1-methylethyl}-1-(4-fluorophenyl)-1H-imidazol-2-yl]thio}methyl)phenyl]-1H-tetrazole]	< 0.1 µM	0.1 to 1 µM
COc1cc(C(C)(C)c2cnc(SCc3c(F)cc(-c4n[nH]c(=O)o4)cc3Cl)n2-c2ccc(F)cc2)ccc1Cl [5-[3-chloro-4-({[5-{1-[4-chloro-3-(methyloxy)phenyl]-1-methylethyl}-1-(4-fluorophenyl)-1H-imidazol-2-yl]thio}methyl)-5-fluorophenyl]-1,3,4-oxadiazol-2(3H)-one]	< 0.1 µM	< 0.1 µM
COc1cc(C(C)(C)c2cnc(SCc3c(F)cc(-c4nnn[nH]4)cc3F)n2-c2ccc(F)cc2)ccc1Cl [5-[4-({[5-{1-[4-chloro-3-(methyloxy)phenyl]-1-methylethyl}-1-(4-fluorophenyl)-1H-imidazol-2-yl]thio}methyl)-3,5-difluorophenyl]-1H-tetrazole]	< 0.1 µM	< 0.1 µM
COc1cc(C(C)(C)c2cnc(SCc3ccc(F)c(-c4nnn[nH]4)c3)n2-c2ccc(F)cc2)ccc1Cl [5-[5-({[5-{1-[4-chloro-3-(methyloxy)phenyl]-1-methylethyl}-1-(4-fluorophenyl)-1H-imidazol-2-yl]thio}methyl)-2-fluorophenyl]-1H-tetrazole]	< 0.1 µM	< 0.1 µM
CC(C)(O)COc1ccc(CSc2ncc(C(C)(C)c3ccc(Cl)c(Cl)c3)n2-c2ccc(F)cc2)cc1S(N)(=O)=O [5-[({5-[1-(3,4-dichlorophenyl)-1-methylethyl]-1-(4-fluorophenyl)-1H-imidazol-2-yl}thio)methyl]-2-[(2-hydroxy-2-methylpropyl)oxy]benzenesulfonamide]	< 0.1 µM	0.1 to 1 µM
CC(C)(c1ccc(Cl)c(Cl)c1)c1cnc(SCc2ccc(OCCO)c(S(N)(=O)=O)c2)n1-c1ccc(F)cc1 [5-[({5-[1-(3,4-dichlorophenyl)-1-methylethyl]-1-(4-fluorophenyl)-1H-imidazol-2-yl}thio)methyl]-2-[(2-hydroxyethyl)oxy]benzenesulfonamide]	< 0.1 µM	0.1 to 1 µM
